Earlier results as cited in US20240115517A1, “COMPOSITIONS AND METHODS FOR IMPROVING SKIN BARRIER” (LYCORED LTD., priority 0001, published 2024).

Experiments:
[1] = 4 mg/day, 9 weeks

CC1=C(/C=C/C(C)=C/C=C/C(C)=C/C=C/C=C(C)/C=C/C=C(C)/C=C/C2=C(C)C(=O)[C@@H](O)CC2(C)C)C(C)(C)C[C@H](O)C1=O [astaxanthin, Astaxanthin]
TEWL compared to controls (36 male subjects; 6 mg per day, 6 weeks): significantly reduced | minor wrinkles, age spot size, elasticity, hydration (36 male subjects; astaxanthin supplementation): improvements | minimal erythema dose of UV [1]: increase | increase of TEWL at the site of irradiation versus control group ([1]; after UV irradiation): significantly less
